Data as given in patent US20230398130A1, “METHODS AND COMPOSITIONS FOR DIFFERENTIATING STEM CELLS” (Massachusetts Institute of Technology, priority 2020, published 2023).

How the values were obtained:
[1] = system: ISC-enriched organoids; test: Primary screen, 384-well 2.5-D organoid differentiation (ENR+CD, 6 days): basal lysozyme secretion (LYZ.NS); type: cell-based, murine; conditions: for Dose.FC.LYZ.NS (log 2 fold change): vs plate median; for Dose.FC.LYZ.NS: FC vs plate median; for Z.LYZ.NS: standard z score of FC
Excerpt: (§1) High-throughput screening.

[2] = system: ISC-enriched organoids; test: Primary screen, 384-well 2.5-D organoid differentiation (ENR+CD, 6 days): carbachol-induced lysozyme secretion (LYZ.S); type: cell-based, murine; conditions: for Dose.FC.LYZ.S (log 2 fold change): vs plate median; for Dose.FC.LYZ.S: FC vs plate median
Excerpt: as §1

[3] = system: ISC-enriched organoids; test: Primary screen, 384-well 2.5-D organoid differentiation (ENR+CD, 6 days, Target Selective Inhibitor Library, vs whole-plate median): ATP (CellTiter-Glo 3D, CTG); conditions: for Dose.FC.CTG (log 2 fold change): vs plate median; for Dose.FC.CTG: FC vs plate median; for Z.CTG: standard z score of FC
[4] = primary screen, dose 0.08 uM, ENR+CD 6 days
[5] = primary screen, dose 0.40 uM, ENR+CD 6 days
[6] = primary screen, dose 2.00 uM, ENR+CD 6 days
[7] = primary screen, dose 10.00 uM, ENR+CD 6 days

Molecule	Z.LYZ.NS (standard z score) ([1]; Dose 0.08 uM, primary screen)	Dose.FC.LYZ.NS (log 2 fold change) ([1]; Dose 0.08 uM, primary screen)	Z.LYZ.NS (standard z score) ([1]; Dose 0.40 uM, primary screen)	Dose.FC.LYZ.NS (log 2 fold change) ([1]; Dose 0.40 uM, primary screen)	Z.LYZ.NS (standard z score) ([1]; Dose 2.00 uM, primary screen)	Dose.FC.LYZ.NS (log 2 fold change) ([1]; Dose 2.00 uM, primary screen)	Z.LYZ.NS (standard z score) ([1]; Dose 10.00 uM, primary screen)	Dose.FC.LYZ.NS (log 2 fold change) ([1]; Dose 10.00 uM, primary screen)	Dose.FC.LYZ.S (log 2 fold change) ([2]; Dose 0.08 uM, primary screen)	Dose.FC.LYZ.S (log 2 fold change) ([2]; Dose 0.40 uM, primary screen)	Dose.FC.LYZ.S (log 2 fold change) ([2]; Dose 2.00 uM, primary screen)	Dose.FC.LYZ.S (log 2 fold change) ([2]; Dose 10.00 uM, primary screen)	Z.CTG (standard z score) ([3]; Dose 0.08 uM, primary screen)	Dose.FC.CTG (log 2 fold change) ([3]; Dose 0.08 uM, primary screen)	Z.CTG (standard z score) ([3]; Dose 0.40 uM, primary screen)	Dose.FC.CTG (log 2 fold change) ([3]; Dose 0.40 uM, primary screen)	Z.CTG (standard z score) ([3]; Dose 2.00 uM, primary screen)	Dose.FC.CTG (log 2 fold change) ([3]; Dose 2.00 uM, primary screen)	Z.CTG (standard z score) ([3]; Dose 10.00 uM, primary screen)	Dose.FC.CTG (log 2 fold change) ([3]; Dose 10.00 uM, primary screen)	also measured
S3I-201	0.445	0.051	0.527	0.061	0.212	0.024	−0.143	−0.016	0.033	0.157	−0.004	−0.052	0.766	0.321	0.382	0.160	0.188	0.079	−0.334	−0.140	
Cc1ccc(S(=O)(=O)Cc2nc(-c3ccc(C(=O)NCc4cccnc4)cc3)oc2C)cc1 [STF-118804]	−1.349	−0.155	−1.824	−0.210	−1.502	−0.172	−1.541	−0.177	−0.257	−0.212	−0.271	−0.300	−0.360	−0.151	−3.346	−1.401	−2.189	−0.916	−3.195	−1.338	
CCOC(=O)c1ccc(NC2CCCCC2)c(N)c1 [Ferrostatin-1 (Fer-1)]																					Dose.FC.LYZ.NS ([1]; Dose 0.08 uM, ENR+CD, 6 days): 0.108 log 2 fold change; Z.LYZ.NS ([1]; Dose 0.08 uM): 0.944; Dose.FC.LYZ.NS ([1]; Dose 0.40 uM, ENR+CD, 6 days): 0.116 log 2 fold change; Z.LYZ.NS ([1]; Dose 0.40 uM): 1.012; Dose.FC.LYZ.NS ([1]; Dose 2.00 uM, ENR+CD, 6 days): 0.070 log 2 fold change; Z.LYZ.NS ([1]; Dose 2.00 uM): 0.610; Dose.FC.LYZ.NS ([1]; Dose 10.00 uM, ENR+CD, 6 days): 0.013 log 2 fold change; Z.LYZ.NS ([1]; Dose 10.00 uM): 0.116; Dose.FC.LYZ.S ([2]; Dose 0.08 uM, ENR+CD, 6 days): 0.120 log 2 fold change; Dose.FC.LYZ.S ([2]; Dose 0.40 uM, ENR+CD, 6 days): 0.207 log 2 fold change; Dose.FC.LYZ.S ([2]; Dose 2.00 uM, ENR+CD, 6 days): 0.092 log 2 fold change; Dose.FC.LYZ.S ([2]; Dose 10.00 uM, ENR+CD, 6 days): −0.018 log 2 fold change; Dose.FC.CTG ([3]; Dose 0.08 uM, ENR+CD, 6 days): 0.312 log 2 fold change; Z.CTG ([3]; Dose 0.08 uM): 0.745; Dose.FC.CTG ([3]; Dose 0.40 uM, ENR+CD, 6 days): 0.453 log 2 fold change; Z.CTG ([3]; Dose 0.40 uM): 1.082; Dose.FC.CTG ([3]; Dose 2.00 uM, ENR+CD, 6 days): 0.215 log 2 fold change; Z.CTG ([3]; Dose 2.00 uM): 0.514; Dose.FC.CTG ([3]; Dose 10.00 uM, ENR+CD, 6 days): −0.046 log 2 fold change; Z.CTG ([3]; Dose 10.00 uM): −0.109
O=C1NC(=O)/C(=C/c2ccc(-c3ccc(F)cc3O)o2)S1 [AS-252424]																					Dose.FC.LYZ.NS [1, 4]: 0.070 log 2 fold change; Z.LYZ.NS ([1]; primary screen, dose 0.08 uM): 0.609; Dose.FC.LYZ.NS [1, 5]: −0.042 log 2 fold change; Z.LYZ.NS ([1]; primary screen, dose 0.40 uM): −0.368; Dose.FC.LYZ.NS [1, 6]: −0.080 log 2 fold change; Z.LYZ.NS ([1]; primary screen, dose 2.00 uM): −0.695; Dose.FC.LYZ.NS [1, 7]: −0.077 log 2 fold change; Z.LYZ.NS ([1]; primary screen, dose 10.00 uM): −0.671; Dose.FC.LYZ.S [2, 4]: 0.072 log 2 fold change; Dose.FC.LYZ.S [2, 5]: −0.008 log 2 fold change; Dose.FC.LYZ.S [2, 6]: −0.074 log 2 fold change; Dose.FC.LYZ.S [2, 7]: −0.022 log 2 fold change; Dose.FC.CTG [3, 4]: 0.139 log 2 fold change; Z.CTG ([3]; primary screen, dose 0.08 uM): 0.333; Dose.FC.CTG [3, 5]: −0.074 log 2 fold change; Z.CTG ([3]; primary screen, dose 0.40 uM): −0.176; Dose.FC.CTG [3, 6]: −0.359 log 2 fold change; Z.CTG ([3]; primary screen, dose 2.00 uM): −0.858; Dose.FC.CTG [3, 7]: −0.204 log 2 fold change; Z.CTG ([3]; primary screen, dose 10.00 uM): −0.487
